Columns and labels:
Format in all cases: in vivo
[1] = test system: redroot pigweed (Amaranthus retroflexus, AMARE); assay: Pre-emerge test, greenhouse herbicide activity screening; details: pre-emerge, rated 14 days after application, 0 = no damage, 100 = complete death
In short: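 Herbicidal damage is scored 0 (none) to 100 (complete plant death) two weeks after a simulated field spray. Rates span 15–1000 g ai/ha, delivered in acetone at 187 l/ha. For post-emergence treatments, plants have 2–3 leaves and the spray carries 0.25% v/v non-ionic surfactant.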

[2] = test system: barnyardgrass (Echinochloa crus-galli, ECHCG); assay: as above; details: pre-emerge, rated 14 days after application, 0 = no damage, 100 = complete death
In short: (§1)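 Compounds in acetone were track-sprayed at 15–1000 g ai/ha: pre-emergence onto soil sown the previous day, then top-watered to incorporate and later bottom-watered; post-emergence onto 2–3 leaf plants with 0.25% v/v surfactant, bottom-watered only. Ratings on a 0–100 phytotoxicity scale were taken at day 14.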

[3] = test system: common ragweed (Ambrosia artemisizfolia L., AMBEL); assay: as above; details: pre-emerge, rated 14 days after application, 0 = no damage, 100 = complete death
In short: as §1

[4] = test system: green foxtail (Setaria viridis, SETVI); assay: as above; details: pre-emerge, rated 14 days after application, 0 = no damage, 100 = complete death
In short: as §1

[5] = test system: ivyleaf morningglory (Ipomoea hederacea, IPOHE); assay: as above; details: pre-emerge, rated 14 days after application, 0 = no damage, 100 = complete death
In short: as §1

[6] = test system: johnsongrass (Sorghum halepense, SORHA); assay: as above; details: pre-emerge, rated 14 days after application, 0 = no damage, 100 = complete death
In short: as §1

[7] = test system: lambsquarters (Chenopodium album, CHEAL); assay: as above; details: pre-emerge, rated 14 days after application, 0 = no damage, 100 = complete death
In short: as §1

[8] = test system: large crabgrass (Digitaria sanguinalis, DIGSA); assay: as above; details: pre-emerge, rated 14 days after application, 0 = no damage, 100 = complete death
In short: as §1

[9] = test system: sicklepod (Cassia obtusifolia, CASOB); assay: as above; details: pre-emerge, rated 14 days after application, 0 = no damage, 100 = complete death
In short: as §1

[10] = test system: velvetleaf (Abutilon theophrasti, ABUTH); assay: as above; details: pre-emerge, rated 14 days after application, 0 = no damage, 100 = complete death
In short: as §1

[11] = test system: field corn (Zea mays L., var. Dekalb 535, CORN); assay: Pre-emerge test, crop safety; details: pre-emerge, rated 14 days after application, 0 = no damage, 100 = complete death
In short: (§2)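 Plants grown in 10 cm pots of sandy loam mix received acetone-dissolved compounds through a moving flat-fan nozzle. Doses ranged from 15 to 1000 g ai/ha. Pre-emerge pots were seeded one day earlier, post-emerge pots 8–21 days earlier. Fourteen days on, each pot was graded 0–100 for damage.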

[12] = test system: upland rice (Oryza sp., var. Tebonnet, RICE); assay: Pre-emerge test, crop safety; details: pre-emerge, rated 14 days after application, 0 = no damage, 100 = complete death
In short: as §2

[13] = test system: barnyardgrass (Echinochloa crus-galli, ECHCG); assay: Post-emerge test, greenhouse herbicide activity screening; details: phytotoxicity rating 0-100 (0 no damage, 100 complete death), 14 days after application
In short: (§3)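 Rating: 0–100 visual injury, 14 DAA. Application: acetone, 187 l/ha, 15–1000 g ai/ha, flat-fan track sprayer with nozzle 40–45 cm above soil or canopy. Post-emerge runs used 0.25% v/v surfactant on 2–3 leaf plants.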

[14] = test system: common ragweed (Ambrosia artemisizfolia L., AMBEL); assay: as above; details: phytotoxicity rating 0-100 (0 no damage, 100 complete death), 14 days after application
In short: as §3

[15] = test system: green foxtail (Setaria viridis, SETVI); assay: as above; details: phytotoxicity rating 0-100 (0 no damage, 100 complete death), 14 days after application
In short: as §3

[16] = test system: ivyleaf morningglory (Ipomoea hederacea, IPOHE); assay: as above; details: phytotoxicity rating 0-100 (0 no damage, 100 complete death), 14 days after application
In short: as §3

[17] = test system: johnsongrass (Sorghum halepense, SORHA); assay: as above; details: phytotoxicity rating 0-100 (0 no damage, 100 complete death), 14 days after application
In short: as §3

[18] = test system: lambsquarters (Chenopodium album, CHEAL); assay: as above; details: phytotoxicity rating 0-100 (0 no damage, 100 complete death), 14 days after application
In short: as §3

[19] = test system: large crabgrass (Digitaria sanguinalis, DIGSA); assay: as above; details: phytotoxicity rating 0-100 (0 no damage, 100 complete death), 14 days after application
In short: as §3

[20] = test system: redroot pigweed (Amaranthus retroflexus, AMARE); assay: as above; details: phytotoxicity rating 0-100 (0 no damage, 100 complete death), 14 days after application
In short: as §3

[21] = test system: sicklepod (Cassia obtusifolia, CASOB); assay: as above; details: phytotoxicity rating 0-100 (0 no damage, 100 complete death), 14 days after application
In short: as §3

[22] = test system: velvetleaf (Abutilon theophrasti, ABUTH); assay: as above; details: phytotoxicity rating 0-100 (0 no damage, 100 complete death), 14 days after application
In short: as §3

[23] = test system: field corn (Zea mays L., var. Dekalb 535, CORN); assay: Post-emerge test, crop safety; details: phytotoxicity rating 0-100 (0 no damage, 100 complete death), 14 days after application
In short: as §3

[24] = test system: upland rice (Oryza sp., var. Tebonnet, RICE); assay: Post-emerge test, crop safety; details: phytotoxicity rating 0-100 (0 no damage, 100 complete death), 14 days after application
In short: as §3

COc1c(Cl)cc(F)c(-n2c(=O)cc(C(F)(F)F)n(C)c2=O)c1NC(C)=O [2-1]
Pre-emerge Herbicidal Activity AMARE (phytotoxicity rating, scale 0-100) ([1]; 63 g ai/ha): 60 | Pre-emerge Herbicidal Activity AMARE (phytotoxicity rating, scale 0-100) ([1]; 250 g ai/ha): 100 | Pre-emerge Herbicidal Activity ECHCG (phytotoxicity rating, scale 0-100) ([2]; 63 g ai/ha): 10 | Pre-emerge Herbicidal Activity ECHCG (phytotoxicity rating, scale 0-100) ([2]; 250 g ai/ha): 70 | Pre-emerge Herbicidal Activity AMBEL (phytotoxicity rating, scale 0-100) ([3]; 63 g ai/ha): 50 | Pre-emerge Herbicidal Activity AMBEL (phytotoxicity rating, scale 0-100) ([3]; 250 g ai/ha): 100 | Pre-emerge Herbicidal Activity SETVI (phytotoxicity rating, scale 0-100) ([4]; 63 g ai/ha): 80 | Pre-emerge Herbicidal Activity SETVI (phytotoxicity rating, scale 0-100) ([4]; 250 g ai/ha): 95 | Pre-emerge Herbicidal Activity IPOHE (phytotoxicity rating, scale 0-100) ([5]; 63 g ai/ha): 95 | Pre-emerge Herbicidal Activity IPOHE (phytotoxicity rating, scale 0-100) ([5]; 250 g ai/ha): 100 | Pre-emerge Herbicidal Activity SORHA (phytotoxicity rating, scale 0-100) ([6]; 63 g ai/ha): 30 | Pre-emerge Herbicidal Activity SORHA (phytotoxicity rating, scale 0-100) ([6]; 250 g ai/ha): 70 | Pre-emerge Herbicidal Activity CHEAL (phytotoxicity rating, scale 0-100) ([7]; 63 g ai/ha): 90 | Pre-emerge Herbicidal Activity CHEAL (phytotoxicity rating, scale 0-100) ([7]; 250 g ai/ha): 100 | Pre-emerge Herbicidal Activity DIGSA (phytotoxicity rating, scale 0-100) ([8]; 63 g ai/ha): 20 | Pre-emerge Herbicidal Activity DIGSA (phytotoxicity rating, scale 0-100) ([8]; 250 g ai/ha): 100 | Pre-emerge Herbicidal Activity CASOB (phytotoxicity rating, scale 0-100) ([9]; 63 g ai/ha): 80 | Pre-emerge Herbicidal Activity CASOB (phytotoxicity rating, scale 0-100) ([9]; 250 g ai/ha): 100 | Pre-emerge Herbicidal Activity ABUTH (phytotoxicity rating, scale 0-100) ([10]; 63 g ai/ha): 100 | Pre-emerge Herbicidal Activity ABUTH (phytotoxicity rating, scale 0-100) ([10]; 250 g ai/ha): 100 | Pre-emerge crop damage CORN (phytotoxicity rating, scale 0-100) ([11]; 63 g ai/ha): 30 | Pre-emerge crop damage CORN (phytotoxicity rating, scale 0-100) ([11]; 250 g ai/ha): 80 | Pre-emerge crop damage RICE (phytotoxicity rating, scale 0-100) ([12]; 63 g ai/ha): 80 | Pre-emerge crop damage RICE (phytotoxicity rating, scale 0-100) ([12]; 250 g ai/ha): 90 | Post-emerge Herbicidal Activity ECHCG ([13]; 63 g ai/ha): 0 | Post-emerge Herbicidal Activity ECHCG ([13]; 250 g ai/ha): 10 | Post-emerge Herbicidal Activity AMBEL ([14]; 63 g ai/ha): 30 | Post-emerge Herbicidal Activity AMBEL ([14]; 250 g ai/ha): 85 | Post-emerge Herbicidal Activity SETVI ([15]; 63 g ai/ha): 0 | Post-emerge Herbicidal Activity SETVI ([15]; 250 g ai/ha): 30 | Post-emerge Herbicidal Activity IPOHE ([16]; 63 g ai/ha): 100 | Post-emerge Herbicidal Activity IPOHE ([16]; 250 g ai/ha): 100 | Post-emerge Herbicidal Activity SORHA ([17]; 63 g ai/ha): 0 | Post-emerge Herbicidal Activity SORHA ([17]; 250 g ai/ha): 0 | Post-emerge Herbicidal Activity CHEAL ([18]; 63 g ai/ha): 95 | Post-emerge Herbicidal Activity CHEAL ([18]; 250 g ai/ha): 100 | Post-emerge Herbicidal Activity DIGSA ([19]; 63 g ai/ha): 0 | Post-emerge Herbicidal Activity DIGSA ([19]; 250 g ai/ha): 0 | Post-emerge Herbicidal Activity AMARE ([20]; 63 g ai/ha): 50 | Post-emerge Herbicidal Activity AMARE ([20]; 250 g ai/ha): 100 | Post-emerge Herbicidal Activity CASOB ([21]; 63 g ai/ha): 50 | Post-emerge Herbicidal Activity CASOB ([21]; 250 g ai/ha): 100 | Post-emerge Herbicidal Activity ABUTH ([22]; 63 g ai/ha): 100 | Post-emerge Herbicidal Activity ABUTH ([22]; 250 g ai/ha): 100 | Post-emerge Herbicidal Activity CORN (crop damage) ([23]; 63 g ai/ha): 10 | Post-emerge Herbicidal Activity CORN (crop damage) ([23]; 250 g ai/ha): 15 | Post-emerge Herbicidal Activity RICE (crop damage) ([24]; 63 g ai/ha): 30 | Post-emerge Herbicidal Activity RICE (crop damage) ([24]; 250 g ai/ha): 70
